Assay results published in patent publication US20230330109A1, “COMPOUND FOR PREVENTING AND TREATING LIVER DISEASES AND PHARMACEUTICAL USE THEREOF” (CHENGDU BIOBEL COMPANY LIMITED, priority 2020, published 2023).
Where a name gives a salt, the structure may show the parent alone.

Columns and labels:
Format in all cases: in vivo
male C57BL/6N mice [1] = assay: Liver histopathological examination in MCD diet FLD mice (Experimental Example 1); design: scale not given here; conditions: liver histopathology, dosage 300 mg/kg (I-1, HTD1801) or 150 mg/kg (nor-UDCA, berberine hydrochloride)
Excerpt: (§1) 48 male C57BL/6N mice (8-week-old) were chosen, in which 8 mice were randomly divided into the blank group, fed with normal diet, while the other 40 mice were all subjected to establishing models. There was an adaptation period of 6 days before modeling. Then, mice were fed with the mixture of MCD and MCS (TROPHIC Animal Feed High-Tech Co. Ltd, Nantong, Jiangsu, China, TP3005GS, high-fat feed) in a ratio of 1:2, 1:1 and 2:1, and each ratio of diet was given to the mice for two days in the order of 1:2, 1:1 and 2:1. After that, mice were given MCD feed for 28 days (TROPHIC Animal Feed High-Tech Co. Ltd, Nantong, Jiangsu, China, TP3005G, methionine- and choline-deficient diet). On the 28th day, mice were randomly divided into five groups, namely model group, compound I-1 group, norUDCA group, berberine hydrochloride group, and HTD1801 group, eight mice for each group. After grouping, each treatment group was further fed customized MCD diet containing drugs for 20 days, while the model group was fed the same diet as the previous. All groups were fed the isocaloric diet. After the last administration on the 21st day, the mice were fasted for 16 h (but free access to water) and weighed. Then, blood was taken from the femoral artery and centrifuged to separate the serum, which was stored at low temperature of −30° C., ready for testing the biochemical indexes of the serum. In addition, the liver was taken, and two pieces of left lobe were taken for each mouse, which were placed in 10% neutral formalin solution, respectively. After treatment, liver histopathological examination was performed.

male C57BL/6N mice [2] = assay: Serum biochemical indexes in MCD diet FLD mice (Experimental Example 1); design: AST / ALT / ALP: unit not given here; conditions: for decrease rate of ALP / decrease rate of ALT / decrease rate of AST: compared with the model group, dosages as in Table 1; for ALP / ALT / AST: serum, MCD diet mice, drug in diet for 20 days, dosage 300 mg/kg/d (I-1, HTD1801) or 150 mg/kg/d (nor-UDCA, berberine hydrochloride)
Excerpt: as §1

male C57BL/6N mice [3] = assay: Hepatic fat staining in MCD diet FLD mice (Experimental Example 1); conditions: dosage 300 mg/kg (I-1, HTD1801) or 150 mg/kg (nor-UDCA, berberine hydrochloride)
Excerpt: as §1

male Wistar rats = assay: Thioacetamide-induced hepatic fibrosis/cirrhosis in rats, Sirius Red fibrosis area; conditions: for decrease rate of fibrosis area: compared with the rat cirrhosis model group, dosages as in Table 4; for Hepatic fibrosis area (%): thioacetamide rats, oral, Sirius Red, dosage 160 mg/kg (I-1, HTD1801) or 80 mg/kg (nor-UDCA, berberine hydrochloride)
Excerpt: 60 male Wistar rats (weighing 180-220 g) were divided into 6 groups, with 10 rats in each group, and the rats were provided by Chengdu Dossy Experimental Animal Co., Ltd. In the experiment, the compound of the present invention and the positive control drug nor-UDCA were first ground in a proper amount of Tween, and then diluted to the pre-determined concentration with 0.5% carboxymethyl cellulose (CMC) sodium.
The rat liver fibrosis model was established by inducing with thioacetamide. Rats were intraperitoneally injected with thioacetamide at a dose of 200 mg/kg, three times a week, for 12 weeks. Four weeks after induction with thioacetamide, the compound of the present invention was orally administered to the test groups, while the blank group and the model group were given the same amount of CMC suspension. Among them, every morning, rats in each test group were given 160 mg/kg of compound I-1, 80 mg/kg of nor-UDCA, 80 mg/kg of berberine hydrochloride, and 160 mg/kg of positive control HTD1801. After experiment, all rats were euthanized, and their livers were taken out.
The liver tissue was fixed with 10% formaldehyde solution and embedded in paraffin. The fixed liver tissue was sectioned with a thickness of about […], and then stained with Hematoxylin-Eosin (HE) and Sirius Red. Sirius Red staining was used for morphological analysis and to determine the percentage of liver tissue affected by its fibrosis. The image of the section was collected by using the microscopic imaging system. In order to make the results more accurate, 15 positive visual fields of Sirius Red staining were randomly selected from each slice to calculate the proportion of liver fibrosis area, which was used in statistical analysis.

Row | Structure (SMILES) | Score Edema (male C57BL/6N mice [1]) | Score Inflammation cell infiltration (male C57BL/6N mice [1]) | Score Necrosis (male C57BL/6N mice [1]) | Score Steatosis (male C57BL/6N mice [1]) | decrease rate of ALP (male C57BL/6N mice [2]) [%] | decrease rate of ALT (male C57BL/6N mice [2]) [%] | decrease rate of AST (male C57BL/6N mice [2]) [%] | ALP (male C57BL/6N mice [2]) | ALT (male C57BL/6N mice [2]) | AST (male C57BL/6N mice [2]) | Hepatic fat staining Scores (male C57BL/6N mice [3]) | decrease rate of fibrosis area (male Wistar rats) [%] | Hepatic fibrosis area (%) (male Wistar rats)
1 | COc1ccc2cc3[n+](cc2c1OC)CCc1cc2c(cc1-3)OCO2 [Berberine hydrochloride, berberine hydrochloride] | 1.8 | 1.9 | 2.1 | 2.2 | 15.10 | 12.09 | 1.86 | 193.4 ± 32.9 | 942.4 ± 64.5 | 768.4 ± 38.1 | 1.9 | 15.17 | 15.14 ± 3.67
2 | COc1ccc2cc3[n+](cc2c1OC)CCc1cc2c(cc1-3)OCO2.C[C@H](CCC(=O)[O-])[C@H]1CC[C@H]2[C@@H]3[C@@H](O)C[C@@H]4C[C@H](O)CC[C@]4(C)[C@H]3CC[C@]12C [HTD1801] | 0.7 | 1.3 | 0.8 | 1.3 |  |  |  | 188.8 ± 21.3 | 303.0 ± 99.1 | 409.9 ± 51.7 | 1.1 |  | 9.39 ± 1.45
3 | C[C@H](CC(=O)O)[C@H]1CC[C@H]2[C@@H]3[C@@H](O)C[C@@H]4C[C@H](O)CC[C@]4(C)[C@H]3CC[C@]12C [nor-UDCA, norursodeoxycholic acid] | 1.6 | 2.1 | 2.0 | 2.5 | 12.95 | 21.82 | 20.67 | 198.3 ± 94.5 | 761.8 ± 374.2 | 683.4 ± 253.7 | 1.7 | 6.18 | 16.79 ± 5.48
